Measurements: PubChem BioAssay AID1963977 (Molecular Pharmacology Branch, DTP, NCI, 2024)

Test system: 624824-186-R-J3-PDC multicell spheroids, viability
Assay: Anticancer human tumor 624824-186-R-J3-PDC patient-derived colon adenocarcinoma cell line growth inhibition [PI3K]
Conditions: for viability, T/C: stronger effect = lower value
In short: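 Viability of mixed-cell spheroids was determined after exposure to pairwise combinations, one partner being inavolisib, alpelisib, duvelisib or copanlisib. Highest tested concentration matched clinical Cmax where known and 10 microM where not, descending in half-log steps.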
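Further: spheroids exposed to agents for seven days before luminescence read.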
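Wherever viability, T/C is given: luminescent signal used as a stand-in for spheroid viability; percent viability relative to DMSO vehicle control wells taken as 100%.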

Cn1ncc(Cl)c1-c1cc(C(=O)NC(CN)Cc2cccc(F)c2)sc1Cl (centres undefined) + COc1c(OCCCN2CCOCC2)ccc2c3n(c(=NC(=O)c4cnc(N)nc4)nc12)CCN3
IC50 (curve of first compound, second compound 0.00316 µM): 9.34 µM | IC50 (curve of first compound, second compound 0.01 µM): > 10 µM | IC50 (curve of first compound, second compound 0.0316 µM): 4.16 µM | IC50 (curve of first compound, second compound 0.1 µM): 2.59 µM | IC50 (curve of first compound, second compound 0.316 µM): 0.455 µM | IC50 (curve of first compound, second compound 1 µM): < 0.0316 µM | viability, T/C (second compound 0.00316 µM, first compound 0.0316 µM): 106% | viability, T/C (second compound 0.00316 µM, first compound 0.1 µM): 96.6% | viability, T/C (second compound 0.00316 µM, first compound 0.316 µM): 92% | viability, T/C (second compound 0.00316 µM, first compound 1 µM): 74.8% | viability, T/C (second compound 0.00316 µM, first compound 3.16 µM): 68.5% | viability, T/C (second compound 0.00316 µM, first compound 10 µM): 47.2% | viability, T/C (second compound 0.01 µM, first compound 0.0316 µM): 97.6% | viability, T/C (second compound 0.01 µM, first compound 0.1 µM): 99.3% | viability, T/C (second compound 0.01 µM, first compound 0.316 µM): 95% | viability, T/C (second compound 0.01 µM, first compound 1 µM): 71.1% | viability, T/C (second compound 0.01 µM, first compound 3.16 µM): 57.3% | viability, T/C (second compound 0.01 µM, first compound 10 µM): 48.6% | viability, T/C (second compound 0.0316 µM, first compound 0.0316 µM): 94.2% | viability, T/C (second compound 0.0316 µM, first compound 0.1 µM): 96.4% | viability, T/C (second compound 0.0316 µM, first compound 0.316 µM): 83.6% | viability, T/C (second compound 0.0316 µM, first compound 1 µM): 82.5% | viability, T/C (second compound 0.0316 µM, first compound 3.16 µM): 52.8% | viability, T/C (second compound 0.0316 µM, first compound 10 µM): 37.2% | viability, T/C (second compound 0.1 µM, first compound 0.0316 µM): 78.8% | viability, T/C (second compound 0.1 µM, first compound 0.1 µM): 80.5% | viability, T/C (second compound 0.1 µM, first compound 0.316 µM): 75.4% | viability, T/C (second compound 0.1 µM, first compound 1 µM): 60.9% | viability, T/C (second compound 0.1 µM, first compound 3.16 µM): 48.8% | viability, T/C (second compound 0.1 µM, first compound 10 µM): 33% | viability, T/C (second compound 0.316 µM, first compound 0.0316 µM): 54.2% | viability, T/C (second compound 0.316 µM, first compound 0.1 µM): 54.5% | viability, T/C (second compound 0.316 µM, first compound 0.316 µM): 51.5% | viability, T/C (second compound 0.316 µM, first compound 1 µM): 46% | viability, T/C (second compound 0.316 µM, first compound 3.16 µM): 39.9% | viability, T/C (second compound 0.316 µM, first compound 10 µM): 25.9% | viability, T/C (second compound 1 µM, first compound 0.0316 µM): 32.4% | viability, T/C (second compound 1 µM, first compound 0.1 µM): 26.8% | viability, T/C (second compound 1 µM, first compound 0.316 µM): 27.8% | viability, T/C (second compound 1 µM, first compound 1 µM): 32.2% | viability, T/C (second compound 1 µM, first compound 3.16 µM): 29.7% | viability, T/C (second compound 1 µM, first compound 10 µM): 21.7%

CCCS(=O)(=O)Nc1ccc(F)c(C(=O)c2c[nH]c3ncc(-c4ccc(Cl)cc4)cc23)c1F
viability, T/C (compound 0.0316 µM): 99.1% [middle of 4 runs] | viability, T/C (compound 0.1 µM): 97.5% [middle of 4 runs] | viability, T/C (compound 0.316 µM): 102% [middle of 4 runs] | viability, T/C (compound 1 µM): 95.5% [middle of 4 runs] | viability, T/C (compound 3.16 µM): 86% [middle of 4 runs] | viability, T/C (compound 10 µM): 11.9% [middle of 4 runs] | IC50 (curve of compound): 5.47 µM [middle of 4 runs]
